Assay results as given in patent US7138361B2, “Herbicidal heterocycles” (E. I. du Pont de Nemours and Company, priority 2000, dated 2006).

Tests used:
Assay in all cases: Test C postemergence
Assay type in all cases: in vivo
[1] = test system: crabgrass (Digitaria sanguinalis)
Procedure, shortened: (§1)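 Herbicidal effect is a visual 0–100 score (100 = complete control) assigned versus untreated plants, 12 to 14 days after spraying in the greenhouse. Test compounds were applied in a non-phytotoxic, surfactant-containing solvent.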

[2] = test system: giant foxtail (Setaria faberii)
Procedure, shortened: as §1

[3] = test system: cocklebur (Xanthium strumarium)
Procedure, shortened: as §1

[4] = test system: yellow nutsedge (Cyperus esculentus)
Procedure, shortened: as §1

soybean (Glycine max) = test system: soybean (Glycine max)
Procedure, shortened: as §1

[5] = test system: goosegrass (Eleusine indica)
Procedure, shortened: as §1

[6] = test system: woolly cupgrass (Eriochloa villosa)
Procedure, shortened: as §1

[7] = test system: bermudagrass (Cynodon dactylon)
Procedure, shortened: as §1

[8] = test system: velvetleaf (Abutilon theophrasti)
Procedure, shortened: as §1

[9] = test system: johnsongrass (Sorghum halepense)
Procedure, shortened: as §1

[10] = test system: morningglory (Ipomoea hederacea)
Procedure, shortened: as §1

[11] = test system: chickweed (Stellaria media)
Procedure, shortened: as §1

[12] = test system: common ragweed (Ambrosia elatior)
Procedure, shortened: as §1

[13] = test system: Surinam grass (Brachiaria decumbens)
Procedure, shortened: as §1

corn (Zea mays) = test system: corn (Zea mays)
Procedure, shortened: as §1

[14] = Rate 125 g/ha, scale 0 to 100, 0 no effect, 100 complete control
[15] = Rate 250 g/ha, scale 0 to 100 (0 no effect, 100 complete control)
[16] = Rate 500 g/ha, scale 0 to 100 (0 no effect, 100 complete control)

CCC(CC)c1ccn(C2OCN(c3cccc(OC(F)(F)F)c3)C2=O)n1 (stereo not drawn) [Compound 68]
Plant response rating, Crabgrass ([1]; Rate 62 g/ha, scale 0 to 100): 0
Plant response rating, Crabgrass [1, 14]: 0
Plant response rating, Crabgrass [1, 15]: 0
Plant response rating, Crabgrass [1, 16]: 60
Plant response rating, Foxtail, Giant ([2]; Rate 62 g/ha, scale 0 to 100): 0
Plant response rating, Foxtail, Giant [2, 14]: 0
Plant response rating, Foxtail, Giant [2, 15]: 0
Plant response rating, Foxtail, Giant [2, 16]: 0
Plant response rating, Cocklebur ([3]; Rate 62 g/ha, scale 0 to 100): 0
Plant response rating, Cocklebur [3, 14]: 0
Plant response rating, Cocklebur [3, 15]: 0
Plant response rating, Cocklebur [3, 16]: 50
Plant response rating, Nutsedge ([4]; Rate 62 g/ha, scale 0 to 100): 0
Plant response rating, Nutsedge [4, 14]: 0
Plant response rating, Nutsedge [4, 15]: 0
Plant response rating, Nutsedge [4, 16]: 0
Plant response rating, Soybean (soybean (Glycine max); Rate 62 g/ha, scale 0 to 100): 0
Plant response rating, Soybean (soybean (Glycine max); [14]): 0
Plant response rating, Soybean (soybean (Glycine max); [15]): 0
Plant response rating, Soybean (soybean (Glycine max); [16]): 20
Plant response rating, Goosegrass ([5]; Rate 62 g/ha, scale 0 to 100): 0
Plant response rating, Goosegrass [5, 14]: 0
Plant response rating, Goosegrass [5, 15]: 0
Plant response rating, Goosegrass [5, 16]: 0
Plant response rating, Cupgrass, Woolly ([6]; Rate 62 g/ha, scale 0 to 100): 0
Plant response rating, Cupgrass, Woolly [6, 14]: 0
Plant response rating, Cupgrass, Woolly [6, 15]: 0
Plant response rating, Cupgrass, Woolly [6, 16]: 30
Plant response rating, Bermudagrass ([7]; Rate 62 g/ha, scale 0 to 100): 0
Plant response rating, Bermudagrass [7, 14]: 0
Plant response rating, Bermudagrass [7, 15]: 20
Plant response rating, Bermudagrass [7, 16]: 40
Plant response rating, Velvetleaf ([8]; Rate 62 g/ha, scale 0 to 100): 0
Plant response rating, Velvetleaf [8, 14]: 0
Plant response rating, Velvetleaf [8, 15]: 0
Plant response rating, Velvetleaf [8, 16]: 30
Plant response rating, Johnsongrass ([9]; Rate 62 g/ha, scale 0 to 100): 0
Plant response rating, Johnsongrass [9, 14]: 0
Plant response rating, Johnsongrass [9, 15]: 0
Plant response rating, Johnsongrass [9, 16]: 20
Plant response rating, Morningglory ([10]; Rate 62 g/ha, scale 0 to 100): 50
Plant response rating, Morningglory [10, 14]: 60
Plant response rating, Morningglory [10, 15]: 60
Plant response rating, Morningglory [10, 16]: 70
Plant response rating, Chickweed ([11]; Rate 62 g/ha, scale 0 to 100): 30
Plant response rating, Chickweed [11, 14]: 40
Plant response rating, Chickweed [11, 15]: 70
Plant response rating, Chickweed [11, 16]: 80
Plant response rating, Ragweed, Common ([12]; Rate 62 g/ha, scale 0 to 100): 0
Plant response rating, Ragweed, Common [12, 14]: 0
Plant response rating, Ragweed, Common [12, 15]: 0
Plant response rating, Ragweed, Common [12, 16]: 30
Plant response rating, Surinam grass ([13]; Rate 62 g/ha, scale 0 to 100): 0
Plant response rating, Surinam grass [13, 14]: 0
Plant response rating, Surinam grass [13, 15]: 0
Plant response rating, Surinam grass [13, 16]: 0
Plant response rating, Corn (corn (Zea mays); Rate 62 g/ha, scale 0 to 100): 0
Plant response rating, Corn (corn (Zea mays); [14]): 0
Plant response rating, Corn (corn (Zea mays); [15]): 0
Plant response rating, Corn (corn (Zea mays); [16]): 0

CCC(C)c1ccn(C2SCN(c3cccc(OC(F)(F)F)c3)C2=O)n1 (stereo not drawn) [Compound 40]
Plant response rating, Crabgrass ([1]; Rate 62 g/ha, scale 0 to 100): 0
Plant response rating, Crabgrass [1, 14]: 0
Plant response rating, Crabgrass [1, 15]: 0
Plant response rating, Crabgrass [1, 16]: 0
Plant response rating, Foxtail, Giant ([2]; Rate 62 g/ha, scale 0 to 100): 0
Plant response rating, Foxtail, Giant [2, 14]: 0
Plant response rating, Foxtail, Giant [2, 15]: 0
Plant response rating, Foxtail, Giant [2, 16]: 0
Plant response rating, Cocklebur ([3]; Rate 62 g/ha, scale 0 to 100): 0
Plant response rating, Cocklebur [3, 14]: 0
Plant response rating, Cocklebur [3, 15]: 0
Plant response rating, Cocklebur [3, 16]: 0
Plant response rating, Nutsedge ([4]; Rate 62 g/ha, scale 0 to 100): 0
Plant response rating, Nutsedge [4, 14]: 0
Plant response rating, Nutsedge [4, 15]: 0
Plant response rating, Nutsedge [4, 16]: 20
Plant response rating, Soybean (soybean (Glycine max); Rate 62 g/ha, scale 0 to 100): 0
Plant response rating, Soybean (soybean (Glycine max); [14]): 0
Plant response rating, Soybean (soybean (Glycine max); [15]): 0
Plant response rating, Soybean (soybean (Glycine max); [16]): 0
Plant response rating, Goosegrass ([5]; Rate 62 g/ha, scale 0 to 100): 0
Plant response rating, Goosegrass [5, 14]: 0
Plant response rating, Goosegrass [5, 15]: 0
Plant response rating, Goosegrass [5, 16]: 20
Plant response rating, Cupgrass, Woolly ([6]; Rate 62 g/ha, scale 0 to 100): 0
Plant response rating, Cupgrass, Woolly [6, 14]: 0
Plant response rating, Cupgrass, Woolly [6, 15]: 0
Plant response rating, Cupgrass, Woolly [6, 16]: 0
Plant response rating, Bermudagrass ([7]; Rate 62 g/ha, scale 0 to 100): 0
Plant response rating, Bermudagrass [7, 14]: 20
Plant response rating, Bermudagrass [7, 15]: 60
Plant response rating, Bermudagrass [7, 16]: 70
Plant response rating, Velvetleaf ([8]; Rate 62 g/ha, scale 0 to 100): 0
Plant response rating, Velvetleaf [8, 14]: 0
Plant response rating, Velvetleaf [8, 15]: 0
Plant response rating, Velvetleaf [8, 16]: 20
Plant response rating, Johnsongrass ([9]; Rate 62 g/ha, scale 0 to 100): 0
Plant response rating, Johnsongrass [9, 14]: 0
Plant response rating, Johnsongrass [9, 15]: 20
Plant response rating, Johnsongrass [9, 16]: 30
Plant response rating, Morningglory ([10]; Rate 62 g/ha, scale 0 to 100): 0
Plant response rating, Morningglory [10, 14]: 0
Plant response rating, Morningglory [10, 15]: 0
Plant response rating, Morningglory [10, 16]: 0
Plant response rating, Chickweed ([11]; Rate 62 g/ha, scale 0 to 100): 0
Plant response rating, Chickweed [11, 14]: 0
Plant response rating, Chickweed [11, 15]: 0
Plant response rating, Chickweed [11, 16]: 0
Plant response rating, Ragweed, Common ([12]; Rate 62 g/ha, scale 0 to 100): 0
Plant response rating, Ragweed, Common [12, 14]: 0
Plant response rating, Ragweed, Common [12, 15]: 30
Plant response rating, Ragweed, Common [12, 16]: 40
Plant response rating, Surinam grass ([13]; Rate 62 g/ha, scale 0 to 100): 0
Plant response rating, Surinam grass [13, 14]: 0
Plant response rating, Surinam grass [13, 15]: 0
Plant response rating, Surinam grass [13, 16]: 0
Plant response rating, Corn (corn (Zea mays); Rate 62 g/ha, scale 0 to 100): 0
Plant response rating, Corn (corn (Zea mays); [14]): 0
Plant response rating, Corn (corn (Zea mays); [15]): 20
Plant response rating, Corn (corn (Zea mays); [16]): 30

CCCC(C)c1ccn(C2OCN(c3cccc(OC(F)(F)F)c3)C2=O)n1 (stereo not drawn) [Compound 91]
Plant response rating, Crabgrass ([1]; Rate 62 g/ha, scale 0 to 100): 20
Plant response rating, Crabgrass [1, 14]: 20
Plant response rating, Crabgrass [1, 15]: 30
Plant response rating, Crabgrass [1, 16]: 60
Plant response rating, Foxtail, Giant ([2]; Rate 62 g/ha, scale 0 to 100): 20
Plant response rating, Foxtail, Giant [2, 14]: 20
Plant response rating, Foxtail, Giant [2, 15]: 40
Plant response rating, Foxtail, Giant [2, 16]: 40
Plant response rating, Cocklebur ([3]; Rate 62 g/ha, scale 0 to 100): 0
Plant response rating, Cocklebur [3, 14]: 0
Plant response rating, Cocklebur [3, 15]: 0
Plant response rating, Cocklebur [3, 16]: 20
Plant response rating, Nutsedge ([4]; Rate 62 g/ha, scale 0 to 100): 0
Plant response rating, Nutsedge [4, 14]: 0
Plant response rating, Nutsedge [4, 15]: 0
Plant response rating, Nutsedge [4, 16]: 20
Plant response rating, Soybean (soybean (Glycine max); Rate 62 g/ha, scale 0 to 100): 0
Plant response rating, Soybean (soybean (Glycine max); [14]): 0
Plant response rating, Soybean (soybean (Glycine max); [15]): 0
Plant response rating, Soybean (soybean (Glycine max); [16]): 0
Plant response rating, Goosegrass ([5]; Rate 62 g/ha, scale 0 to 100): 20
Plant response rating, Goosegrass [5, 14]: 20
Plant response rating, Goosegrass [5, 15]: 30
Plant response rating, Goosegrass [5, 16]: 40
Plant response rating, Cupgrass, Woolly ([6]; Rate 62 g/ha, scale 0 to 100): 20
Plant response rating, Cupgrass, Woolly [6, 14]: 20
Plant response rating, Cupgrass, Woolly [6, 15]: 40
Plant response rating, Cupgrass, Woolly [6, 16]: 40
Plant response rating, Bermudagrass ([7]; Rate 62 g/ha, scale 0 to 100): 20
Plant response rating, Bermudagrass [7, 14]: 20
Plant response rating, Bermudagrass [7, 15]: 40
Plant response rating, Bermudagrass [7, 16]: 60
Plant response rating, Velvetleaf ([8]; Rate 62 g/ha, scale 0 to 100): 0
Plant response rating, Velvetleaf [8, 14]: 0
Plant response rating, Velvetleaf [8, 15]: 0
Plant response rating, Velvetleaf [8, 16]: 0
Plant response rating, Johnsongrass ([9]; Rate 62 g/ha, scale 0 to 100): 20
Plant response rating, Johnsongrass [9, 14]: 20
Plant response rating, Johnsongrass [9, 15]: 30
Plant response rating, Johnsongrass [9, 16]: 70
Plant response rating, Morningglory ([10]; Rate 62 g/ha, scale 0 to 100): 0
Plant response rating, Morningglory [10, 14]: 0
Plant response rating, Morningglory [10, 15]: 60
Plant response rating, Morningglory [10, 16]: 90
Plant response rating, Chickweed ([11]; Rate 62 g/ha, scale 0 to 100): 70
Plant response rating, Chickweed [11, 14]: 80
Plant response rating, Chickweed [11, 15]: 80
Plant response rating, Chickweed [11, 16]: 90
Plant response rating, Ragweed, Common ([12]; Rate 62 g/ha, scale 0 to 100): 0
Plant response rating, Ragweed, Common [12, 14]: 0
Plant response rating, Ragweed, Common [12, 15]: 0
Plant response rating, Ragweed, Common [12, 16]: 40
Plant response rating, Surinam grass ([13]; Rate 62 g/ha, scale 0 to 100): 20
Plant response rating, Surinam grass [13, 14]: 20
Plant response rating, Surinam grass [13, 15]: 30
Plant response rating, Surinam grass [13, 16]: 30
Plant response rating, Corn (corn (Zea mays); Rate 62 g/ha, scale 0 to 100): 0
Plant response rating, Corn (corn (Zea mays); [14]): 0
Plant response rating, Corn (corn (Zea mays); [15]): 0
Plant response rating, Corn (corn (Zea mays); [16]): 0
